Patent US20060110451A1, “Formulations of [1,4]diazepino[6,7,1-IJ]quinoline derivatives” (priority 2004, published 2006)
Like-named read-outs stand apart in the source and are kept apart here.

What was measured:
[1] = Early toxicology testing in dogs; format: in vivo; conditions: oral suspension
Source text: Enteric-coated capsules were developed which delayed the release of the drug. […] For human clinical studies, enteric-coated pellets were developed which provided advantages over enteric-coated capsules for dose flexibility and more uniform release in the intestinal tract.

[2] = Ascending multiple dose pharmacokinetics of enteric coated capsules in healthy subjects; format: in vivo, human; conditions: for Tmax / half-life / AUC(0-t) / Cmax / AUC(0-inf): human, plasma
Protocol: Ascending multiple doses of 25, 50, 75, 100, 150, and 250 mg Compound A.HCl were administered as twice-daily regimen (q12h) for 14 days in cohorts of 8 healthy subjects (6 active and 2 placebo). Blood samples for Compound A.HCl analysis were obtained on days 1 and 14 within 2 hours of test article administration and at various time points from 0.5 to 48 hours after test article administration. Doses were administered orally after an overnight fast of at least 10 hours on these 2 days. Trough PK samples were collected on days 7, 10, and 12 to assess whether steady-state had been reached.
A total of 48 subjects contributed pharmacokinetic data for this analysis. […] FIGS. 4A and 4B show the relationship between Cmax vs. dose and AUC vs. dose, respectively.

Compound: Cl.c1cc2c3c(c1)[C@H]1CCC[C@H]1CN3CCNC2 [Compound A.HCl, (9aR,12aS)-4,5,6,7,9,9a,10,11,12,12a-decahydrocyclopenta[c][1,4]diazepino[6,7,1-ij]quinoline hydrochloride]
- reaction noted in toxicology testing [1]: emetic reaction
- steady-state Cl/F lower in comparison to the lower dose groups ([2]; 250 mg q12h dose): 54-60%
- time of minor secondary peak ([2]; day 14 (steady state), most subjects, all dose groups): 24 to 28 h
- dose-proportionality of single dose and steady-state AUC and Cmax ([2]; dose range 25 to 150 mg q12h): approximately linear dose-proportionality
- Tmax ([2]; oral, healthy subjects, single and multiple dose administration, enteric-coated formulation, 25-250 mg, read-out: mean Tmax): 4 to 6 h
- half-life ([2]; oral, multiple dose, read-out: mean elimination t1/2): 6 to 8 h
- half-life ([2]; oral, single dose, read-out: mean elimination t1/2): 8 to 11 h
- AUC(0-t) ([2]; po, 25 mg, healthy subjects, multiple oral doses (q12 h) 25 mg, day 14, read-out: AUCss (AUC0-12) (Geom. Mean)): 8 ng·h/mL
- AUC(0-t) ([2]; po, 25 mg, healthy subjects, multiple oral doses (q12 h) 25 mg, day 14, read-out: AUCss (AUC0-12) (Mean)): ~8.73 ng·h/mL
- Cmax ([2]; po, 25 mg, healthy subjects, multiple oral doses (q12 h) 25 mg, day 14, read-out: Cmax (Geom. Mean)): 1.16 ng/mL
- Cmax ([2]; po, 25 mg, healthy subjects, multiple oral doses (q12 h) 25 mg, day 14, read-out: Cmax (Mean)): 1.22 ng/mL
- Tmax ([2]; po, 25 mg, healthy subjects, multiple oral doses (q12 h) 25 mg, day 14, read-out: Tmax (Geom. Mean)): 3.7 h
- Tmax ([2]; po, 25 mg, healthy subjects, multiple oral doses (q12 h) 25 mg, day 14, read-out: Tmax (Mean)): 4 h
- half-life ([2]; po, 25 mg, healthy subjects, multiple oral doses (q12 h) 25 mg, day 14, read-out: t1/2 (Geom. Mean) (converted)): 6.25 h
- half-life ([2]; po, 25 mg, healthy subjects, multiple oral doses (q12 h) 25 mg, day 14, read-out: t1/2 (Mean) (converted)): 6.35 h
- Cmax ([2]; po, 25 mg, healthy subjects, single oral dose 25 mg, day 1, read-out: Cmax (Geom. Mean)): 0.81 ng/mL
- Cmax ([2]; po, 25 mg, healthy subjects, single oral dose 25 mg, day 1, read-out: Cmax (Mean)): 0.87 ng/mL
- Tmax ([2]; po, 25 mg, healthy subjects, single oral dose 25 mg, day 1, read-out: Tmax (Geom. Mean)): 5 h
- Tmax ([2]; po, 25 mg, healthy subjects, single oral dose 25 mg, day 1, read-out: Tmax (Mean)): 5.2 h
- AUC(0-t) ([2]; po, 50 mg, healthy subjects, multiple oral doses (q12 h) 50 mg, day 14, read-out: AUCss (AUC0-12) (Geom. Mean)): 25.3 ng·h/mL
- AUC(0-t) ([2]; po, 50 mg, healthy subjects, multiple oral doses (q12 h) 50 mg, day 14, read-out: AUCss (AUC0-12) (Mean)): ~26.5 ng·h/mL
- Cmax ([2]; po, 50 mg, healthy subjects, multiple oral doses (q12 h) 50 mg, day 14, read-out: Cmax (Geom. Mean)): 3.27 ng/mL
- Cmax ([2]; po, 50 mg, healthy subjects, multiple oral doses (q12 h) 50 mg, day 14, read-out: Cmax (Mean)): 3.39 ng/mL
- Tmax ([2]; po, 50 mg, healthy subjects, multiple oral doses (q12 h) 50 mg, day 14, read-out: Tmax (Geom. Mean)): 5.6 h
- Tmax ([2]; po, 50 mg, healthy subjects, multiple oral doses (q12 h) 50 mg, day 14, read-out: Tmax (Mean)): 5.7 h
- half-life ([2]; po, 50 mg, healthy subjects, multiple oral doses (q12 h) 50 mg, day 14, read-out: t1/2 (Geom. Mean) (converted)): 7.58 h
- half-life ([2]; po, 50 mg, healthy subjects, multiple oral doses (q12 h) 50 mg, day 14, read-out: t1/2 (Mean) (converted)): 7.64 h
- AUC(0-inf) ([2]; po, 50 mg, healthy subjects, single oral dose 50 mg, day 1, read-out: AUC0-∞ (Geom. Mean)): 22.8 ng·h/mL
- AUC(0-inf) ([2]; po, 50 mg, healthy subjects, single oral dose 50 mg, day 1, read-out: AUC0-∞ (Mean)): 23.5 ng·h/mL
- Cmax ([2]; po, 50 mg, healthy subjects, single oral dose 50 mg, day 1, read-out: Cmax (Geom. Mean)): 2.29 ng/mL
- Cmax ([2]; po, 50 mg, healthy subjects, single oral dose 50 mg, day 1, read-out: Cmax (Mean)): 2.35 ng/mL
- Tmax ([2]; po, 50 mg, healthy subjects, single oral dose 50 mg, day 1, read-out: Tmax (Geom. Mean)): 5 h
- Tmax ([2]; po, 50 mg, healthy subjects, single oral dose 50 mg, day 1, read-out: Tmax (Mean)): 5.3 h
- half-life ([2]; po, 50 mg, healthy subjects, single oral dose 50 mg, day 1, read-out: t1/2 (Geom. Mean) (converted)): 9.69 h
- half-life ([2]; po, 50 mg, healthy subjects, single oral dose 50 mg, day 1, read-out: t1/2 (Mean) (converted)): 10.7 h
- AUC(0-t) ([2]; po, 75 mg, healthy subjects, multiple oral doses (q12 h) 75 mg, day 14, read-out: AUCss (AUC0-12) (Geom. Mean)): 24.1 ng·h/mL
- AUC(0-t) ([2]; po, 75 mg, healthy subjects, multiple oral doses (q12 h) 75 mg, day 14, read-out: AUCss (AUC0-12) (Mean)): ~24.9 ng·h/mL
- Cmax ([2]; po, 75 mg, healthy subjects, multiple oral doses (q12 h) 75 mg, day 14, read-out: Cmax (Geom. Mean)): 2.92 ng/mL
- Cmax ([2]; po, 75 mg, healthy subjects, multiple oral doses (q12 h) 75 mg, day 14, read-out: Cmax (Mean)): 3.05 ng/mL
- Tmax ([2]; po, 75 mg, healthy subjects, multiple oral doses (q12 h) 75 mg, day 14, read-out: Tmax (Geom. Mean)): 6.3 h
- Tmax ([2]; po, 75 mg, healthy subjects, multiple oral doses (q12 h) 75 mg, day 14, read-out: Tmax (Mean)): 6.3 h
- half-life ([2]; po, 75 mg, healthy subjects, multiple oral doses (q12 h) 75 mg, day 14, read-out: t1/2 (Geom. Mean) (converted)): 6.38 h
- half-life ([2]; po, 75 mg, healthy subjects, multiple oral doses (q12 h) 75 mg, day 14, read-out: t1/2 (Mean) (converted)): 6.45 h
- AUC(0-inf) ([2]; po, 75 mg, healthy subjects, single oral dose 75 mg, day 1, read-out: AUC0-∞ (Geom. Mean)): 16.8 ng·h/mL
- AUC(0-inf) ([2]; po, 75 mg, healthy subjects, single oral dose 75 mg, day 1, read-out: AUC0-∞ (Mean)): 16.9 ng·h/mL
- Cmax ([2]; po, 75 mg, healthy subjects, single oral dose 75 mg, day 1, read-out: Cmax (Geom. Mean)): 1.56 ng/mL
- Cmax ([2]; po, 75 mg, healthy subjects, single oral dose 75 mg, day 1, read-out: Cmax (Mean)): 1.6 ng/mL
- Tmax ([2]; po, 75 mg, healthy subjects, single oral dose 75 mg, day 1, read-out: Tmax (Geom. Mean)): 5.3 h
- Tmax ([2]; po, 75 mg, healthy subjects, single oral dose 75 mg, day 1, read-out: Tmax (Mean)): 5.5 h
